Source: patent publication EP4603105A1, “PHARMACEUTICAL COMPOSITION CONTAINING CYCLIC COMPOUND HAVING SELECTIVE KRAS INHIBITORY EFFECT AGAINST HRAS AND NRAS” (CHUGAI SEIYAKU KABUSHIKI KAISHA, priority 2022, dated 2024)
Where a SMILES comes first, the peptide text is derived from it. Bridges are numbered along the chain shown (N, C = ends). [ ]: non-standard residue; d: D form. The star is where a group is joined. hPhe(3,5-F2-4-CF3) = N[C@@H](CCc1cc(F)c(C(F)(F)F)c(F)c1)C(=O)O; NPrPhe(4-CF3) = CCCN[C@@H](Cc1ccc(C(F)(F)F)cc1)C(=O)O; NMeGly(cPent) = CN[C@H](C(=O)O)C1CCCC1; NMeD = CN[C@@H](CC(=O)O)C(=O)O; NMeL = CN[C@@H](CC(C)C)C(=O)O; αMeL = CC(C)C[C@](C)(N)C(=O)O; Morpholide = C1CN(*)CCO1; Aze = O=C(O)[C@@H]1CCN1; Sar = CNCC(=O)O

Experiments:
HRAS wild-type protein = HRAS wild-type protein (Homo sapiens, UniProt P01112); assay: Binding to HRAS by surface plasmon resonance (SPR), KD and KD ratio to KRAS
HRAS wild-type protein, sequence (P01112 whole entry): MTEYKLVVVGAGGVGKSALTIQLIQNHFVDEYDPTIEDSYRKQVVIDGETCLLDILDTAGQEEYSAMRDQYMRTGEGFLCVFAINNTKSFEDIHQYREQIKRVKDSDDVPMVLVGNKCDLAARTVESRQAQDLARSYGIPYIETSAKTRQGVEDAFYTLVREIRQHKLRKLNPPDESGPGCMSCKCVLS
Summary of the method: (§1)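 Recombinant RAS proteins bearing a biotinylated Avi tag and loaded with GDP served as the captured ligand, recaptured fresh every cycle. Binding responses were referenced to an uncoated surface and a buffer-only blank cycle. Dissociation constants were obtained by 1:1 model fitting at 30°C.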

[1] = system: human lung cancer strain NCI-H441; assay type: cell-based
Summary of the method: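 Signal came from […] measured per well once the reagent was added. Beforehand, cells were cultured at 37°C and 5% carbon dioxide on a compound series serially diluted in dimethyl sulfoxide.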

[2] = target: GDP-bound NRAS wild-type protein (Homo sapiens, UniProt P01111); assay: Binding to NRAS by surface plasmon resonance (SPR), KD and KD ratio to KRAS
GDP-bound NRAS wild-type protein, sequence (P01111 whole entry): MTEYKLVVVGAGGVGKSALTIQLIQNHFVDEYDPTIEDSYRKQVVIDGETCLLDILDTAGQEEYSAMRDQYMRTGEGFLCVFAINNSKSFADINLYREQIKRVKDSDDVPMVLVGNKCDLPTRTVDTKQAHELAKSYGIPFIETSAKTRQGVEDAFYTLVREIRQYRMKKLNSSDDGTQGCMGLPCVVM
Summary of the method: as §1

[3] = target: GDP-bound KRAS wild-type protein (Homo sapiens, UniProt P01116); assay: Binding to KRAS by surface plasmon resonance (SPR), dissociation constant KD
GDP-bound KRAS wild-type protein, sequence (P01116 1-188 isoform P01116-2): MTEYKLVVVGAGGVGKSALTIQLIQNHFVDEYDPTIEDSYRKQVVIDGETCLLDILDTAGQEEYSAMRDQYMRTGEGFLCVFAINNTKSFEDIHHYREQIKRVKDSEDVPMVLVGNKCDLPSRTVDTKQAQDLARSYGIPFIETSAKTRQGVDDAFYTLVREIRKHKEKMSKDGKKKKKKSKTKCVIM
Summary of the method: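 GDP-bound biotin-Avi RAS captured at ~100–300 RU, 30°C, pH 7.4 HBS containing 10 µM GDP, 10 mM MgCl2, 1 mM DTT, 0.01% Tween 20 and 4% DMSO. KD by 1:1 fitting.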

[4] = ratio of KD for HRAS wild-type protein to KD for KRAS
[5] = ratio of KD for GDP-bound NRAS wild-type protein to KD for KRAS
[6] = ratio of KD value for HRAS wild-type protein to KD value for KRAS (SPR)
[7] = ratio of KD value for GDP-bound NRAS wild-type protein to KD value for KRAS (SPR)
[8] = Single Cycle Kinetics, 1:1 binding model
[9] = ratio of the KD value with respect to HRAS wild-type protein to the KD value with respect to KRAS
[10] = ratio of the KD value with respect to GDP-bound NRAS wild-type protein to the KD value with respect to KRAS

SMILES | HRAS /KRAS (HRAS wild-type protein; [4]) | IC50 [1] [nM] | NRAS /KRAS [2, 5] | Kd ([3]; Single Cycle Kinetics) [nM] | HRAS /KRAS (HRAS wild-type protein; [6]) | NRAS /KRAS [2, 7] | Kd [3, 8] [nM] | Kd ([3]; 1:1 binding model) [nM] | HRAS /KRAS (HRAS wild-type protein; [9]) | NRAS /KRAS [2, 10]
CCO[C@@H]1C[C@H]2C(=O)NC3(CCC3)C(=O)N(C)[C@@H](C3CCCC3)C(=O)N(C)[C@H](C(=O)N(C)C)CC(=O)N(C)[C@@H](CC)C(=O)N[C@@H]([C@@H](C)CC)C(=O)N(C)CC(=O)N(C)[C@H]3CCCCCN(C3=O)[C@@H](Cc3ccc(F)c(C)c3)C(=O)N(C)CC(=O)N[C@@H](CCc3cc(F)c(C(F)(F)F)c(F)c3)C(=O)N2C1 [PP0912] | B (a compound having 3 or more and less than 10 is denoted as B) | 40.5 | B (a compound having 3 or more and less than 10 is denoted as B) | 0.32 | – | – | – | – | – | –
CC[C@H](C)[C@@H]1NC(=O)[C@H](CC)N(C)C(=O)C[C@@H](C(=O)N(C)C)N(C)C(=O)[C@H](C2CCCC2)N(C)C(=O)C2(CCC2)N(C)C(=O)[C@@H]2CCCN2C(=O)[C@H](CCc2cc(F)c(C(F)(F)F)c(F)c2)NC(=O)CN(C)C(=O)[C@H](Cc2ccc(C)cc2)N2CC/C=C\C[C@@H](C2=O)N(C)C(=O)CN(C)C1=O [PP1782] | – | 6.7 | – | – | B (a compound having 3 or more and less than 10 is denoted as B) | A (a compound having 10 or more and less than 20 is denoted as A) | 0.044 | – | – | –
CCO[C@@H]1C[C@H]2C(=O)NC3(CC(C)(C)C3)C(=O)N(C)[C@@H](C3CCCC3)C(=O)N(C)[C@H](C(=O)N(C)C)CC(=O)N(C)[C@@H]([C@@H](C)OC)C(=O)N[C@@H]([C@@H](C)CC)C(=O)N3CCC[C@H]3C(=O)N(C)[C@H]3C/C=C\CCN(C3=O)[C@@H](Cc3ccc(C(F)(F)F)cc3)C(=O)N(C)CC(=O)N[C@@H](CCc3cc(F)c(C(F)(F)F)c(F)c3)C(=O)N2C1 [PP3205] | A (a compound having 10 or more and less than 20 is denoted as A) | 18.4 | A (a compound having 10 or more and less than 20 is denoted as A) | – | – | – | – | 0.39 | – | –
CCO[C@@H]1C[C@H]2C(=O)NC3(CC(C)(C)C3)C(=O)N(C)[C@@H](C3CCCC3)C(=O)N(C)[C@H](C(=O)N(C)C)CC(=O)N(C)[C@@H]([C@H](C)OC)C(=O)N[C@@H]([C@@H](C)CC)C(=O)N(C3CC3)CC(=O)N(C)[C@H]3C/C=C\CCN(C3=O)[C@@H](Cc3ccc(C)cc3)C(=O)N(C)CC(=O)N[C@@H](CCc3ccc(C(F)(F)F)c(Cl)c3)C(=O)N2C1 [PP3195] | A (a compound having 10 or more and less than 20 is denoted as A) | 22.2 | A (a compound having 10 or more and less than 20 is denoted as A) | – | – | – | – | 0.41 | – | –
CCO[C@@H]1C[C@H]2C(=O)NC3(CC(C)(C)C3)C(=O)N(C)[C@@H](C3CCCC3)C(=O)N(C)[C@H](C(=O)N(C)C)CC(=O)N(C)[C@@H]([C@H](C)OC)C(=O)N[C@@H]([C@@H](C)CC)C(=O)N(C3CC3)CC(=O)N(C)[C@H]3C/C=C\CCN(C3=O)[C@@H](Cc3ccc(C)cc3)C(=O)N(C)CC(=O)N[C@@H](CCc3cc(F)c(C(F)(F)F)c(F)c3)C(=O)N2C1 [PP3193] | A (a compound having 10 or more and less than 20 is denoted as A) | 21.1 | A (a compound having 10 or more and less than 20 is denoted as A) | – | – | – | – | 0.35 | – | –
CCO[C@@H]1C[C@H]2C(=O)NC3(CCC3)C(=O)N(C)[C@@H](C3CCCC3)C(=O)N(C)[C@H](C(=O)N3CCOCC3)CC(=O)N(C)[C@@H](Cc3cccnc3)C(=O)N[C@@H]([C@@H](C)CC)C(=O)N(C)CC(=O)N(C)[C@H]3CCCCN(C3=O)[C@@H](Cc3ccc(C(F)(F)F)cc3)C(=O)N(C)CC(=O)N[C@@H](CCc3cc(F)c(C(F)(F)F)c(F)c3)C(=O)N2C1 [PP0718] | – | 42.3 | – | – | – | – | 0.029 | – | B (a compound having 3 or more and less than 10 is denoted as B) | C (A compound having a KD ratio of 0.1 or more and less than 3 is denoted as C)
CCO[C@@H]1C[C@H]2C(=O)NC3(CCC3)C(=O)N(C)[C@@H](C3CCCC3)C(=O)N(C)[C@H](C(=O)N(C)CC)CC(=O)N(C)[C@@H](CC(C)C)C(=O)N[C@@H]([C@@H](C)CC)C(=O)N(C)CC(=O)N(C)[C@H]3C/C=C\CCN(C3=O)[C@@H](Cc3ccc(C(F)(F)F)cc3)C(=O)N(C)CC(=O)N[C@@H](CCc3ccc(C(F)(F)F)c(Cl)c3)C(=O)N2C1 [PP2847] | A (a compound having 10 or more and less than 20 is denoted as A) | 7.3 | A (a compound having 10 or more and less than 20 is denoted as A) | – | – | – | – | 0.083 | – | –
CCC[C@H]1C(=O)N[C@@H]([C@@H](C)CC)C(=O)N(C2CC2)CC(=O)N(C)[C@H]2C/C=C\CCN(C2=O)[C@@H](CC2CCCCC2)C(=O)N(C)CC(=O)N[C@@H](CCc2ccc(C(F)(F)F)c(OC)c2)C(=O)N2C[C@H](OCC)C[C@H]2C(=O)N(C)C2(CCC2)C(=O)N(C)[C@@H](C2CCCC2)C(=O)N(C)[C@H](C(=O)N(C)C)CC(=O)N1C [PP2340] | – | 44.9 | – | – | – | – | 1.1 | – | B (a compound having 3 or more and less than 10 is denoted as B) | B (a compound having 3 or more and less than 10 is denoted as B)
CCCN1C(=O)CN(C)C(=O)[C@@H]2CCN2C(=O)[C@H]([C@@H](C)CC)NC(=O)[C@H](CC(C)C)N(C)C(=O)C[C@@H](C(=O)N2CCOCC2)N(C)C(=O)[C@H](C2CCCC2)N(C)C(=O)[C@](C)(CC(C)C)NC(=O)[C@@H]2CCCN2C(=O)[C@H](CCc2cc(F)c(C(F)(F)F)c(F)c2)NC(=O)CN(C)C(=O)[C@@H]1Cc1ccc(C(F)(F)F)cc1 [PP0776] ([NMeL]I[Aze][Sar][NPrPhe(4-CF3)][Sar][hPhe(3,5-F2-4-CF3)]P[αMeL][NMeGly(cPent)][NMeD]-Morpholide; lactam N-11) | B (a compound having 3 or more and less than 10 is denoted as B) | 591 | B (a compound having 3 or more and less than 10 is denoted as B) | 15 | – | – | – | – | – | –
CCO[C@@H]1C[C@H]2C(=O)NC3(CCC3)C(=O)N(C)[C@@H](C(CC)CC)C(=O)N(C)[C@H](C)CC(=O)N(C)[C@@H](CC3CC3)C(=O)N[C@@H]([C@@H](C)CC)C(=O)N(C)CC(=O)N(C)[C@H]3C/C=C\CCN(C3=O)[C@@H](Cc3ccc(F)cc3C)C(=O)N(C)CC(=O)N[C@@H](CCc3cc(F)c(C(F)(F)F)c(F)c3)C(=O)N2C1 [PP1520] | – | 575 | – | – | A (a compound having 10 or more and less than 20 is denoted as A) | A (a compound having 10 or more and less than 20 is denoted as A) | 6.6 | – | – | –
CCC[C@H]1C(=O)N[C@@H]([C@@H](C)CC)C(=O)N(C)CC(=O)N(C)[C@H]2C/C=C\CCN(C2=O)[C@@H](Cc2ccc(C(F)(F)F)cc2)C(=O)N(C)CC(=O)N[C@@H](CCc2ccc3c(C)c(C)n(C)c3c2)C(=O)N2C[C@H](OCC)C[C@H]2C(=O)NC2(CC(C)(C)C2)C(=O)N(C)[C@@H](C(CC)CC)C(=O)N(C)[C@H](C(=O)N(C)C)CC(=O)N1C [PP2904] | A (a compound having 10 or more and less than 20 is denoted as A) | 82.4 | AA (a compound having 20 or more is denoted as AA) | – | – | – | – | 3.8 | – | –
CCCC[C@H]1C(=O)N[C@@H]([C@@H](C)CC)C(=O)N(C)CC(=O)N(C)[C@H]2C/C=C\CCN(C2=O)[C@@H](Cc2ccc(C)cc2)C(=O)N(C)CC(=O)N[C@@H](CCc2cc(F)c(C(F)(F)F)c(F)c2)C(=O)N2C[C@H](OCC)C[C@H]2C(=O)NC2(CC(C)(C)C2)C(=O)N(C)[C@@H](C2CCCC2)C(=O)N(C)[C@H](C(=O)N(C)C)CC(=O)N1C [PP2800] | A (a compound having 10 or more and less than 20 is denoted as A) | 7.9 | A (a compound having 10 or more and less than 20 is denoted as A) | – | – | – | – | 0.056 | – | –
